Experimental data as given in patent US12590062B2, “PD-1/PD-L1 inhibitors” (Gilead Sciences, Inc., priority 2017, dated 2026).

Legend:
[1] = target: T1, PD-1/PD-L1 interaction (Homo sapiens, UniProt Q9NZQ7); experiment: PD-1/PD-L1 NFAT reporter co-culture assay; assay type: cell-based; conditions: Jurkat PD-1 NFAT-luciferase cells co-cultured with aAPC-PD-L1 CHO cells, 6 hrs at 37° C.; read-out: EC50 NFAT Luciferase
T1 construct: expressed in transfected cells; host or cells: CHO cells (aAPC-PD-L1) co-cultured with Jurkat cells overexpressing PD-1 and an NFAT-luciferase reporter
Summary of the method: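 Jurkat cells overexpressing PD-1 with NFAT-luciferase mixed with compounds and plated onto CHO aAPCs expressing anti-CD3 and PD-L1, RPMI with 2% FBS. Co-culture 6 h at 37 °C; luminescence read with ONE-Glo. EC50 from four-parameter fit.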

[2] = target: T2, PD-L1 (Homo sapiens, UniProt Q9NZQ7); experiment: PD-L1/PD-L1 dimerization biochemical protein-protein interaction assay (ALPHA); assay type: binding; conditions: compound-induced PD-L1 dimerization, head prints '1 nM' (0.5 nM His-tagged PD-L1 and 0.5 nM FLAG-tagged PD-L1), read-out: AC50 PDL1 Dimer Alpha 1 nM
T2 construct: determine if they can specifically dimerize the extracellular domains of PD-L1
Summary of the method: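 After 2 h at 25 °C with compound, His- and FLAG-tagged PD-L1 ECDs (each 0.5 nM final; 25 mM Hepes pH 7.4, 150 mM NaCl) were detected by sequential anti-His acceptor and anti-FLAG donor bead incubations. Dose-response curves fitted to four-parameter equation for AC50.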

[3] = target: PD-1/PD-L1 (Homo sapiens, UniProt Q9NZQ7); experiment: PD-1/PD-L1 biochemical protein-protein interaction assay (ALPHA); assay type: binding; conditions: 0.3 nM His tagged PD-L1, 2.5 nM biotinylated Fc-PD-1, 60 minutes at 25° C., read-out: IC50 PD-L1-PD-1 Alpha IC50-mono PD-L1-fcP-D1
Summary of the method: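 IC50 values derive from four-parameter fits of ALPHA signal decrease. Assay: 0.3 nM His-tagged PD-L1 with 2.5 nM biotinylated Fc-PD-1, Hepes pH 7.4 with 0.005% Tween 20 and 0.01% BSA, 60 min at 25° C, then anti-His acceptor and streptavidin donor beads.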

T2 sequence (Q9NZQ7 19-238 limits assumed): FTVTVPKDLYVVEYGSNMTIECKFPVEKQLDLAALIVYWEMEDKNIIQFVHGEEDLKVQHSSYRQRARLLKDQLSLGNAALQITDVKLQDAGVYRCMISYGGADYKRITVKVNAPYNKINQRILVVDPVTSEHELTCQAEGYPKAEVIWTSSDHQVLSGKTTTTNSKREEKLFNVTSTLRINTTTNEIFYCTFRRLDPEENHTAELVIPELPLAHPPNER
T2 sequence (Q9NZQ7 19-238 limits assumed): as above
PD-1/PD-L1, sequence (Q9NZQ7 19-238 limits assumed): as above
T1 sequence (Q9NZQ7 19-290): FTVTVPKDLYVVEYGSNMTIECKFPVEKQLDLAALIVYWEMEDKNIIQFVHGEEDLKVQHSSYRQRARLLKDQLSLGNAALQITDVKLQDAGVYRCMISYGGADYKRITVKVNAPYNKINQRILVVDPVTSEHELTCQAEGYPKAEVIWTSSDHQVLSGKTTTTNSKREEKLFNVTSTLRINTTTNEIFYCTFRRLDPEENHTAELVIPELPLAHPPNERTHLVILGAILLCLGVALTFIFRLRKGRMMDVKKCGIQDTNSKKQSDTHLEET

| SMILES | EC50 [1] | AC50 [2] | IC50 [3] |
| --- | --- | --- | --- |
| COc1nc(O[C@H]2CCc3c(-c4cccc(-c5cnc(CN[C@@H]6CCC[C@@H]6O)c(OC)n5)c4Cl)cccc32)c(Cl)cc1CNC[C@@H]1CCC(=O)N1 [Example 647] | 234 nM | 211 nM | 1.89 nM |
| COc1nc(O[C@H]2CCc3c(-c4cccc(-c5cnc(CNC[C@@H]6CCC(=O)N6)c(OC)n5)c4Cl)cccc32)c(Cl)cc1CNC[C@@H]1CCC(=O)N1 [Example 652] | 59 nM | 140 nM | 0.158 nM |
| N#CCOc1cc(-c2cccc(-c3cccc4c3CC[C@@H]4Oc3nc(OCC#N)c(CNC[C@@H]4CCC(=O)N4)cc3Cl)c2Cl)ccc1CNC[C@@H]1CCC(=O)N1 [Example 653] | 93 nM | 105 nM | 0.17 nM |
| COc1nc(O[C@H]2CCc3c(-c4cccc(-c5ccc(CNC[C@@H]6CCC(=O)N6)c(OC(F)F)c5)c4Cl)cccc32)c(Cl)cc1CNC[C@@H]1CCC(=O)N1 [Example 657] | 197 nM | 156 nM | 0.795 nM |
| C[C@@](CO)(NCc1cc(Cl)c(O[C@H]2CCc3c(-c4cccc(-c5ccc(OCCNCCO)cc5)c4Cl)cccc32)nc1OCc1cncc(S(C)(=O)=O)c1)C(=O)O [Example 660] | 107 nM | 15.2 nM | 0.064 nM |
| N#Cc1cncc(COc2nc(O[C@H]3CCc4c(-c5cccc(-c6ccc(OCCNCCO)cc6)c5Cl)cccc43)ccc2CNC[C@@H](O)CC(=O)O)c1 [Example 661] | 159 nM | 126 nM | 0.256 nM |
| N#Cc1cncc(COc2nc(O[C@H]3CCc4c(-c5cccc(-c6ccc(OCCNCCO)cc6)c5Cl)cccc43)c(Br)cc2CNC[C@@H](O)CC(=O)O)c1 [Example 662] | 83 nM | 14.5 nM | 0.139 nM |
| C[C@@](CO)(NCc1cc(Br)c(O[C@H]2CCc3c(-c4cccc(-c5ccc(OCCNCCO)cc5)c4Cl)cccc32)nc1OCc1cncc(C#N)c1)C(=O)O [Example 663] | 118 nM | 6.56 nM | 0.064 nM |
| CNCc1cc(Cl)c(O[C@H]2CCc3c(-c4cccc(-c5ccc(OCCN6CC[C@@H](O)C6)cc5)c4Cl)cccc32)nc1OCc1cncc(S(C)(=O)=O)c1 [Example 664] | ≥ 50000 nM | ≥ 10000 nM | 2.6 nM |
| CC(C)(NCc1cc(Cl)c(O[C@H]2CCc3c(-c4cccc(-c5ccc(OCCN6CC[C@@H](O)C6)cc5)c4Cl)cccc32)nc1OCc1cncc(S(C)(=O)=O)c1)C(=O)O [Example 665] | 150 nM | 16.5 nM | 0.064 nM |
| CS(=O)(=O)c1cncc(COc2nc(O[C@H]3CCc4c(-c5cccc(-c6ccc(OCCN7CC[C@@H](O)C7)cc6)c5Cl)cccc43)c(Cl)cc2CNC[C@@H](O)CC(=O)O)c1 [Example 666] | 418 nM | 22.9 nM | 0.076 nM |
| CC(C)(NCc1cc(Cl)c(O[C@H]2CCc3c(-c4cccc(-c5ccc(OCCN6CC[C@@H](O)C6)cc5)c4Cl)cccc32)nc1OCc1cncc(C#N)c1)C(=O)O [Example 667] | 1890 nM | 17 nM | 0.064 nM |
| C[C@@](CO)(NCc1cc(Cl)c(O[C@H]2CCc3c(-c4cccc(-c5ccc(OCCN6CC[C@@H](O)C6)cc5)c4Cl)cccc32)nc1OCc1cncc(C#N)c1)C(=O)O [Example 668] | 886 nM | 16.5 nM | 0.064 nM |
| C[C@@](CO)(NCc1cc(Cl)c(O[C@H]2CCc3c(-c4cccc(-c5ccc(OCCN6CC[C@@H](O)C6)cc5)c4Cl)cccc32)nc1OCc1cncc(S(C)(=O)=O)c1)C(=O)O [Example 669] | 637 nM | 17.2 nM | 0.064 nM |
| CN1CCCC1c1ccc(-c2cccc(-c3cccc4c3CC[C@@H]4Oc3nc(OCc4cncc(C#N)c4)c(CNCCO)cc3Cl)c2Cl)cc1 (stereo partly drawn) [Example 670] | ≥ 50000 nM | 74.8 nM | 1.74 nM |
| C[C@@](CO)(NCc1cc(Cl)c(O[C@H]2CCc3c(-c4cccc(-c5ccc(S(N)(=O)=O)cc5)c4Cl)cccc32)nc1OCc1cncc(C#N)c1)C(=O)O [Example 671] | 235 nM | ≥ 10000 nM | 0.159 nM |
| CN1CCCC1c1ccc(-c2cccc(-c3cccc4c3CC[C@@H]4Oc3nc(OCc4cncc(C#N)c4)c(CNC(C)(C)C(=O)O)cc3Cl)c2Cl)cc1 (stereo partly drawn) [Example 672] | 435 nM | 24.5 nM | 0.064 nM |
| C[C@@](CO)(NCc1ccc(O[C@H]2CCc3c(-c4cccc(OCCCN5CC[C@@H](O)C5)c4Cl)cccc32)nc1OCc1cncc(C#N)c1)C(=O)O [Example 673] | 583 nM | 399 nM | 0.154 nM |
| Cc1c(-c2ccc(OCCNC[C@@H](O)CC(=O)O)cc2)cccc1-c1cccc2c1CC[C@@H]2Oc1ccc(CNC[C@@H](O)CC(=O)O)c(OCc2cncc(C#N)c2)n1 [Example 677] | 145 nM | 180 nM | 0.063 nM |
| COc1nc(O[C@H]2CCc3c(-c4cccc5c4CC[C@@H]5Oc4ccc(CNC[C@@H](O)CC(=O)O)c(OCc5cncc(C#N)c5)n4)cccc32)c(Br)cc1CNC[C@@H](O)CC(=O)O [Example 678] | 264 nM | 254 nM | 0.105 nM |
| COc1nc(O[C@H]2CCc3c(-c4cccc5c4CC[C@@H]5Oc4nc(OCc5cncc(C#N)c5)c(CNC[C@@H](O)CC(=O)O)cc4Br)cccc32)c(Br)cc1CNC[C@@H](O)CC(=O)O [Example 679] | 64 nM | 101 nM | 0.058 nM |
| COc1nc(-c2cccc(-c3cccc4c3CC[C@@H]4Oc3nc(OCc4cncc(C#N)c4)c(CN[C@@](C)(CO)C(=O)O)cc3Cl)c2Cl)ccc1CN1CC2(C1)CN(C(=O)OC(C)(C)C)C2 [Example 682] | 243 nM | 194 nM | 0.421 nM |
| COc1nc(-c2cccc(-c3cccc4c3CC[C@@H]4Oc3nc(OCc4cncc(C#N)c4)c(CNC[C@@H](O)CC(=O)O)cc3Cl)c2Cl)ccc1CN1CC2(CCC(=O)N2)C1 [Example 683] | 98 nM | 116 nM | 0.104 nM |
| C[C@@](CO)(NCc1ccc(O[C@H]2CCc3c(-c4cccc5c4CC[C@@H]5Oc4nc(OCc5cncc(C#N)c5)c(CN[C@@](C)(CO)C(=O)O)cc4Cl)cccc32)cc1)C(=O)O [Example 685] | 625 nM | 1820 nM | 0.552 nM |

Molecules with a lower EC50 [1], results first:

| EC50 [1] | AC50 [2] | IC50 [3] | SMILES |
| --- | --- | --- | --- |
| 57 nM | 60.9 nM | 0.064 nM | COc1nc(O[C@H]2CCc3c(-c4cccc(-c5cnc(CN[C@@H]6CCC[C@@H]6O)c(OC)n5)c4Cl)cccc32)c(Cl)cc1CN[C@@](C)(CO)C(=O)O [Example 648] |
| 29 nM | 38.8 nM | 0.064 nM | COc1nc(O[C@H]2CCc3c(-c4cccc(-c5cnc(CNC[C@@H]6CCC(=O)N6)c(OC)n5)c4Cl)cccc32)c(Cl)cc1CN[C@@](C)(CO)C(=O)O [Example 649] |
| 39 nM | 8.2 nM | 0.288 nM | COc1nc(O[C@H]2CCc3c(-c4cccc(-c5ccc(CNC[C@@H]6CCC(=O)N6)c(OCC#N)c5)c4Cl)cccc32)c(Cl)cc1CN[C@@H]1CCC[C@@H]1O [Example 650] |
| 41 nM | 29.5 nM | 0.297 nM | COc1nc(O[C@H]2CCc3c(-c4cccc(-c5ccc(CNC[C@@H]6CCC(=O)N6)c(OCC#N)n5)c4Cl)cccc32)c(Cl)cc1CN[C@@H]1CCC[C@@H]1O [Example 651] |
| 27 nM | 10.9 nM | 0.09 nM | COc1nc(O[C@H]2CCc3c(-c4cccc(-c5ccc(CNC[C@@H]6CCC(=O)N6)c(OCC#N)c5)c4Cl)cccc32)c(Cl)cc1CNC[C@@H](O)CC(=O)O [Example 654] |
| 28 nM | 26 nM | 0.404 nM | COc1nc(O[C@H]2CCc3c(-c4cccc(-c5ccc(CNC[C@@H]6CCC(=O)N6)c(OCC#N)c5)c4Cl)cccc32)c(Cl)cc1CNC[C@@H]1CCC(=O)N1 [Example 655] |
| 24 nM | 37.7 nM | 0.29 nM | COc1nc(O[C@H]2CCc3c(-c4cccc(-c5ccc(CNC[C@@H]6CCC(=O)N6)c(OCC#N)n5)c4Cl)cccc32)c(Cl)cc1CNC[C@@H]1CCC(=O)N1 [Example 656] |
| 51 nM | 78.5 nM | 0.221 nM | COc1nc(-c2cccc(-c3cccc4c3CC[C@@H]4Oc3nc(OCC#N)c(CNC[C@@H]4CCC(=O)N4)cc3Cl)c2Cl)ccc1CNC[C@@H]1CCC(=O)N1 [Example 658] |
| 51 nM | 22.1 nM | 0.064 nM | CS(=O)(=O)c1cncc(COc2nc(O[C@H]3CCc4c(-c5cccc(-c6ccc(CN)cc6)c5Cl)cccc43)c(Cl)cc2CNC[C@@H](O)CC(=O)O)c1 [Example 659] |
| 44 nM | 11.3 nM | 0.064 nM | C[C@@](CO)(NCc1cc(Cl)c(O[C@H]2CCc3c(-c4cccc(-c5ccc(OCCNCCO)cc5)c4Cl)cccc32)nc1OCc1cncc(C#N)c1)C(=O)O [Example 674] |
| 36 nM | 41.2 nM | 0.064 nM | COc1nc(-c2cccc(-c3cccc4c3CC[C@@H]4Oc3nc(OCc4cncc(C#N)c4)c(CN[C@@](C)(CO)C(=O)O)cc3Cl)c2Cl)ccc1CN1CC2(CCC(=O)N2)C1 [Example 684] |
